The source of these data is ChEMBL document CHEMBL1125650, “Relationships between the structure of taxol analogues and their antimitotic activity” (J Med Chem, 1991).

Assay [1] relates to P388. As to the kind of experiment: The concentration required to 50% inhibition of the P388 leukemic cell proliferation. The class given is functional, cell-based. Conditions: Mus musculus.
Assay [2] is described as follows: Ratio of the concentration of compound leading to a 50% inhibition of the rate of pig brain microtubule disassembly to that of compound 13a was determined. The format is functional.
The species named for assay [3] is Sus scrofa. As to the kind of experiment: Ratio of the concentration leading to a 50% inhibition of the rate of pig brain microtubule disassembly to that of taxol (0.4 uM) was determined. The format is functional.
Assay [4] in a line: Cytotoxicity was measured as ratio of its IC50 value to that of compound 13a. The format is functional.

For orientation: IC50 means the point on the concentration scale where inhibition reaches its midpoint. Higher therefore signals a need for much substance.

SMILES strings stand for the structures. In brackets after ≈: the same amount, converted by molar mass.

For the molecule `CC(=O)O[C@@]12CO[C@@H]1C[C@H](O)[C@@]1(C)C(=O)[C@H](O)C3=C(C)[C@@H](OC(=O)[C@@H](O)[C@H](NC(=O)OC(C)(C)C)c4ccccc4)C[C@@](O)([C@@H](OC(=O)c4ccccc4)[C@H]21)C3(C)C`, in assay [1], the IC50 is more than 10 µg/mL. Besides, the Ratio in assay [2] was 60; in assay [3], 30; in assay [4], more than 77.
In assay [1], `CC(=O)O[C@@]12CO[C@@H]1C[C@H](O)[C@@]1(C)C(=O)[C@H](O)C3=C(C)[C@@H](OC(=O)[C@H](O)[C@@H](NC(=O)OC(C)(C)C)c4ccccc4)C[C@@](O)([C@@H](OC(=O)c4ccccc4)[C@H]21)C3(C)C.O.O.O` [DOCETAXEL] gave an IC50 of 0.13 µg/mL. Also, the Ratio in assay [2] stood at 1; in assay [3], 0.5; in assay [4], 1.
The molecule `CC(=O)O[C@@]12CO[C@@H]1C[C@H](O)[C@@]1(C)C(=O)[C@H](O)C3=C(C)[C@@H](OC(=O)C(O)C(NC(=O)c4ccc(S(=O)(=O)O)cc4)c4ccccc4)C[C@@](O)([C@@H](OC(=O)c4ccccc4)[C@H]21)C3(C)C` (some centres undefined) gave an IC50 in assay [1] of more than 4 µg/mL. Moreover, the Ratio in assay [2] is 11; in assay [3], 5.5; in assay [4], more than 31.
The matching figures for `CC(=O)O[C@H]1C(=O)[C@@]2(C)[C@H]([C@H](OC(=O)c3ccccc3)[C@]3(O)C[C@H](OC(=O)[C@H](O)[C@@H](NC(=O)OC(C)(C)C)c4ccccc4)C(C)=C1C3(C)C)[C@]1(OC(C)=O)CO[C@@H]1C[C@@H]2O`: 0.17 µg/mL (≈ 0.2 µM), 1, 0.5 and 1.3.
The matching figures for `CC(=O)O[C@@]12CO[C@@H]1C[C@H](O)[C@@]1(C)C(=O)[C@H](O)C3=C(C)[C@@H](OC(=O)C(NC(=O)OC(C)(C)C)C(O)c4ccccc4)C[C@@](O)([C@@H](OC(=O)c4ccccc4)[C@H]21)C3(C)C` (some centres undefined): 4 µg/mL (≈ 4.95 µM), 20, 10 and 31.
The like results for `CC(=O)O[C@H]1C(=O)[C@@]2(C)[C@H]([C@H](OC(=O)c3ccccc3)[C@]3(O)C[C@H](OC(=O)[C@@H](O)[C@H](NC(=O)c4ccccc4)c4ccccc4)C(C)=C1C3(C)C)[C@]1(OC(C)=O)CO[C@@H]1C[C@@H]2O` were, in that order, 7 µg/mL (≈ 8.2 µM), 9, 4.5 and 54.
